Like-named read-outs stand apart in the source and are kept apart here.
What was measured:
hM3Dq [1] = biological target: T1, hM3Dq (Homo sapiens, UniProt P20309, A239G/Y149C); conditions: read-out: hM3Dq EC50; DREADD agonist; cited from earlier work
hM3 = conditions: read-out: hM3 EC50; selectivity versus native hM3; cited from earlier work
hM3Dq [2] = biological target: T1, hM3Dq; assay: PET imaging with [18F]7b in transgenic mice expressing hM3Dq; type: in vivo, mouse
hM3Dq [3] = biological target: T1, hM3Dq; assay: [3H]CLZ competition binding, membranes of HEK293 cells transfected with hM3Dq
hM4Di [4] = biological target: T2, hM4Di (Homo sapiens, UniProt P08173, A203G/Y113C); assay: [3H]CLZ competition binding, membranes of HEK293 cells transfected with hM4Di
T2 sequence (P08173 1-479 Y113C/A203G): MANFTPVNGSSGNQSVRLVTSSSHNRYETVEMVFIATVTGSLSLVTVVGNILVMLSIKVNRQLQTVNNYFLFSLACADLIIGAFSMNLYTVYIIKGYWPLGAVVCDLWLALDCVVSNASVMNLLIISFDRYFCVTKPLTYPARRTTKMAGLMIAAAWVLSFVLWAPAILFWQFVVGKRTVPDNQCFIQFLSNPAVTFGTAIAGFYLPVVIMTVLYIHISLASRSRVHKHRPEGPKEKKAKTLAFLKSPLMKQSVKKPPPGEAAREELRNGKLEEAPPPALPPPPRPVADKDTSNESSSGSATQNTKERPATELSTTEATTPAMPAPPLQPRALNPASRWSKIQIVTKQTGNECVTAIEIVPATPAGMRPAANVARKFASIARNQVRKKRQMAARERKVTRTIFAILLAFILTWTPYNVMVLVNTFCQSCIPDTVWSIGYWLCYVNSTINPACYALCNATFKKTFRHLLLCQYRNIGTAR

hM3Dq [5] = biological target: T1, hM3Dq; conditions: read-out: Ki, nM hM3Dq; printed without SD; cited from earlier work
hM4Di [6] = biological target: T2, hM4Di; conditions: read-out: Ki, nM hM4Di; printed without SD; cited from earlier work
hM3Dq [7] = biological target: T1, hM3Dq; conditions: hM3Dq Tg mice; cited from earlier work
wild-type mouse brain = assay: PET imaging with [18F]7b in wild-type mouse; conditions: wild-type mouse lacking DREADD expression
[8] = at 50–60 min after injection, transgenic hM3Dq mice
[9] = baseline, cerebellum as reference tissue

T1 sequence (P20309 whole entry Y149C/A239G): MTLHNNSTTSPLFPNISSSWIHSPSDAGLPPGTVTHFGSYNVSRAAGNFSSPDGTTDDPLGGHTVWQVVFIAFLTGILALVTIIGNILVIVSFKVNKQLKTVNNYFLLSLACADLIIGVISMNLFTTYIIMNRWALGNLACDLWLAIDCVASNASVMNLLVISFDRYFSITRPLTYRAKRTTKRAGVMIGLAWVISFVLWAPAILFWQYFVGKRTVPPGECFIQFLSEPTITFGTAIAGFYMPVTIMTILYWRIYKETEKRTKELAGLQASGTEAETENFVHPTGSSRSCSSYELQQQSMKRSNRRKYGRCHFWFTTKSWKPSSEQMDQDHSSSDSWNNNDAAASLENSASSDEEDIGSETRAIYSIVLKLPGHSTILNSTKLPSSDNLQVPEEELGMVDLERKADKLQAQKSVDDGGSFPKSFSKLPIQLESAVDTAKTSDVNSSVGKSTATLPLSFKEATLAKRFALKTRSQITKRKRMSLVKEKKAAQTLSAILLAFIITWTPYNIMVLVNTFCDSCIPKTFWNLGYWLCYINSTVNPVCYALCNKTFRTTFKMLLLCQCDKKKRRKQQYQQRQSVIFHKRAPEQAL

**Q.** With `CCN1CCN(C2=Nc3cc(Cl)ccc3Nc3ccccc32)CC1` [Compound 1, 8-chloro-11-(4-ethylpiperazin-1-yl)-5H-dibenzo[b,e][1,4]diazepine] as the molecule, how does the EC50 (hM3Dq [1]) read?
**A.** Its EC50 is 1.3 nM.

**Q.** What about the EC50 (hM3) of the same molecule?
**A.** Its EC50 is over 30000 nM.

**Q.** For `CCN1CCN(C2=Nc3cc(Cl)ccc3Nc3c(F)cccc32)CC1` [Compound 7d, 8-Chloro-11-(4-ethylpiperazin-1-yl)-4-fluoro-5H-dibenzo[b,e][1,4]diazepine], which “blocking effect on [18F]7b in the cerebellum” value (hM3Dq [2]; 7d as blocker, dose escalation) is on record?
**A.** Its value is “insignificant”.

**Q.** What about the “blocking of [18F]7b binding potential in the cortex versus baseline” value (hM3Dq [2]; 7d as blocker, dose escalation up to 0.5 mg/kg) of the same molecule?
**A.** The value was “significant only at the highest dose of blocker”.

**Q.** Which results are given for `CCN1CCN(C2=Nc3cc(Cl)ccc3Nc3c(F)cc(F)cc32)CC1` [Compound 7h, 8-Chloro-11-(4-ethylpiperazin-1-yl)-2,4-difluoro-5H-dibenzo[b,e][1,4]diazepine]?
**A.** Ki (hM3Dq [3]): 8.1 ± 0.9 nM; Ki (hM4Di [4]): 18.1 ± 5.4 nM

**Q.** Which Ki (hM3Dq [5]) does the source give for `CN1CCN(C2=Nc3ccccc3Nc3ccccc32)CC1` [DCZ, deschloroclozapine] here?
**A.** Its Ki is 6.3 nM.

**Q.** And the Ki (hM4Di [6])?
**A.** The Ki was 4.2 nM.

**Q.** With `[11CH3]N1CCN(C2=Nc3ccccc3Nc3ccccc32)CC1` [[^11C]DCZ, [^11C]deschloroclozapine] as the molecule, how does the STR/CB ratio value (hM3Dq [7]) read?
**A.** The STR/CB ratio value was 2.7.

**Q.** Which “maximum ratio of tissue to cerebellum, cortex” value (hM3Dq [2]; [8]) does the source give for `CCN1CCN(C2=Nc3ccccc3Nc3ccc([18F])cc32)CC1` [[^18F]7b, 11-(4-Ethylpiperazin-1-yl)-2-[^18F]fluoro-5H-dibenzo[b,e][1,4]diazepine] here?
**A.** The value was 1.8.

**Q.** What about the “maximum ratio of tissue to cerebellum, striatum” value (hM3Dq [2]; [8]) of the same molecule?
**A.** The value was 3.0.

**Q.** And the “binding potential BPND, cortex” value (hM3Dq [2]; [9])?
**A.** The value was 0.6.

**Q.** What about the “binding potential BPND, striatum” value (hM3Dq [2]; [9]) of the same molecule?
**A.** Its value is 1.6.

**Q.** What about the “highest accumulation of radioactivity in the striatum (SUV)” value (hM3Dq [2]; baseline, striatum, mean ± SD of 3, transgenic hM3Dq mice) of the same molecule?
**A.** The value was 1.93 ± 0.33 SUV.

**Q.** What about the “accumulation of radioactivity in the brain” value (wild-type mouse brain) of the same molecule?
**A.** Its value is “low accumulation of radioactivity in the brain”.

Source: publication PMC7925357 (European journal of medicinal chemistry, 2020)
